“Also recorded” adds a separate entry of the source.
What was measured:
blood platelets [1] = test: Blood platelet counts in healthy mice after s.c. injection; format: in vivo, C57BL/6 mice; conditions: for Platelets (×10^3): blood at day 5, s.c., 4F-benzoyl-TN14003 100 ug/mouse (5 mg/Kg) once a day for 5 days, TPO 0.5 ug/mouse 3 times once a day (days 3-5 in combination); for % increase (platelet counts): versus PBS control, day 5, same regimens as platelet counts
Description: Female C57BL/6 mice (7-8 weeks old) were purchased from Harlan Israel and maintained under specific pathogen-free conditions at the Hebrew University Animal Facility (Jerusalem, Israel).
(§1) 4F-benzoyl-TN14003 and Thrombopoietin were reconstituted in PBS at various concentrations. Mice were injected subcutaneously in a total volume of 200 μl. 4F-benzoyl-TN14003 (100 ug/mouse, 5 mg/Kg) was injected for 5 days, once a day and at day 5 blood was collected and tested for platelets counts and hematopoietic colonies were tested in the bone marrow. Thrombopoietin was injected 3 times once a day, at (0.5 ug/mouse), and blood was collected and tested for platelets counts and hematopoietic colonies were tested in the bone marrow at day 5. In another group 4F-benzoyl-TN14003 (100 ug/mouse) was injected for 5 days, once a day and at days 3, 4 and 5 mice were further injected with Thrombopoietin (namely 3 times once a day, at 0.5 ug/mouse). Blood was collected and tested for platelets counts and hematopoietic colonies were tested in the bone marrow at day 5. Control mice were injected with PBS at the appropriate volume and blood was collected and tested for platelets counts and hematopoietic colonies in the bone marrow at day 5.
In the experiments described in FIG. 2, mice were injected subcutaneously with 4F-benzoyl-TN14003 at a dose of 5 mg/kg, administered either as a once daily injection or divided into two doses administered b.i.d. Blood platelet levels were measured 1, 2 or 3 days later.
In FIG. 3, “Male control” and “Female control” indicate PBS-treated male and female mice, respectively; “Male+4FB-T140” and “Female+4FB-T140” indicate male or female mice treated with 4F-benzoyl-TN14003 (5 mg/kg)

[2] = system: hematopoietic precursor cells in the bone marrow; test: Hematopoietic progenitor cells (HPCs) colony-forming cell assay, bone marrow of treated mice; format: in vivo, C57BL/6 mice; conditions: bone marrow at day 5; colonies scored after seven days of culture; same regimens as Table 2
Description: as §1
In order to evaluate the number of progenitor cells in the Bone marrow, a colony-forming cell assay was used for the production of hematopoietic colonies following treatments. […] Seven days later, typical colonies were visually scored by morphologic criteria using a light microscope.

blood platelets [3] = test: Chemotherapy (5FU)-induced thrombocytopenia model in mice; format: in vivo; conditions: for Levels of platelets in blood before and after 5FU: 5FU 150 mg/kg i.p. day 0, peptide 5 mg/Kg s.c. daily 5 days before and from day 1 after 5FU, G-CSF 5 μg/mouse daily from day 1, TPO 0.5 μg/mouse 3 days before 5FU, FIG. 4-6
Description: In the chemotherapy experiments 5-fluorouracil (5FU) at 150 mg/kg was dissolved in saline and injected intraperitoneally (on day 0). The mice were treated with 4F-benzoyl-TN14003 (5 mg/Kg) for 5 days or with TPO (0.5 μg/mouse) for 3 days before treatment with 5FU. 4F-benzoyl-TN14003 treated mice were further treated daily with 4F-benzoyl-TN14003 (5 mg/Kg) one day after 5FU administration and the treatment was continued until the end of the experiment. Blood samples were collected 1 hr following 4F-benzoyl-TN14003 administration or control (PBS) injection]; total blood counts were tested by American Medical Laboratories, Israel. In some experiments, G-CSF was s.c. injected daily, one day after 5FU administration until the end of the experiment, at final concentration of 5 μg/mouse in total volume of 0.2 ml.
The platelet modulating effects were then examined in a chemotherapy-induced thrombocytopenia model in mice. In these experiments, 5-fluorouracil (“5FU”) at 150 mg/kg dissolved in saline was injected intraperitoneally to all mice (on day 0). Some of the mice were further treated with 4F-benzoyl-TN14003 (5 mg/Kg, once daily S.C. injections) for 5 days before treatment with 5FU, and Mice were further treated daily with 4F-benzoyl-TN14003 (5 mg/Kg) one day after 5FU and the treatment was continued until the end of the experiment. Blood samples were collected 1 hr following administration of 4F-benzoyl-TN14003 or control (PBS) injection. […] In FIG. 4, diamonds represent control (PBS treated) mice; open squares represent 4F-benzoyl-TN14003 treated mice.
Next, the effect of the peptide on mice treated with 5FU with or without G-CSF was examined. G-CSF administration (as daily S.C. injections, 5 μg/mouse) was initiated one day after 5FU treatment and continued until the end of the experiment. 5FU and 4F-benzoyl-TN14003 administration and blood sample collection were as specified above for FIG. 4. […] In FIG. 5, diamonds represent control (PBS treated) mice; open squares represent 4F-benzoyl-TN14003 treated mice; triangles represent G-CSF treated mice; and crosses represent mice treated with G-CSF and 4F-benzoyl-TN14003.
The activity of the peptide in the chemotherapy-induced thrombocytopenia model was then compared to that of TPO. In the TPO group, mice were treated with a single dose of TPO (0.5 μg/mouse) for 3 days before treatment with 5FU. 5FU and 4F-benzoyl-TN14003 administration and blood sample collection were as specified above for FIG. 4. […] In FIG. 6, diamonds represent control (PBS treated) mice; open squares represent 4F-benzoyl-TN14003 treated mice; and triangles represent TPO treated mice.

blood platelets [4] = test: Clinical study: single dose in Multiple Myeloma patients receiving Cyclophosphamide and G-CSF, blood platelet levels; format: in vivo, human
Description: A Phase […], non-Randomized, Open Label, Single Dose, Dose-Escalation, Safety Study of 4F-benzoyl-TN14003 was conducted in patients with Multiple Myeloma (MM) receiving G-CSF for inducing mobilization of progenitor stem cells from the Bone Marrow to the peripheral blood.
All eligible patients received, in an ambulatory setting, as part of their planned therapy: Cyclophosphamide—(the generic name for Cytoxan, Neosar), 4 gr/m^2 according to the accepted MM practice. G-CSF (neupogen) was initiated 5 days later and continued until the end of stem cell collection, administered SC at 5 μg/kg per day every day after 18:00. Monitoring the WBC and platelets was done after 7 and 10 days, and until stem cell collection. Stem cell collection was performed according to the protocol of WBC over 1,000 cells.
4F-benzoyl-TN14003 was injected after 10 days, as a single dose of 30, 100, 300 or 900 μg/Kg. The follow-up post injection included counting WBC and platelets levels at points of 30 min, 1 hr, 2 hr, 4 hr, 8 hr, 24 hr.
MM patients undergoing chemotherapy with Cyclophosphamide, received G-CSF according to a clinical protocol for inducing HPC mobilization for subsequent harvesting and transplantation. 10 days after Cyclophosphamide and G-CSF treatment, the patients received 4F-benzoyl-TN14003 injected at a dose of 0.9 mg/kg. […]

| Molecule | Blood platelet levels after a single injection (blood platelets [1]; 5 mg/kg s.c., once daily or divided b.i.d., measured 1, 2 or 3 days later, FIG. 2) | Blood platelet levels in male and female mice (blood platelets [1]; 5 mg/kg, measured 3 days post administration, FIG. 3) | Platelets (×10^3) (blood platelets [1]) | Effect on TPO activity in enhancing platelets levels (blood platelets [1]; combination with TPO, mice, FIG. 1) | Potency relative to TPO in stimulating production of platelets (blood platelets [1]; healthy C57B1 mice) | % increase (platelet counts) (blood platelets [1]) | Colonies (HPC counts, colony forming cells in bone marrow) [2] | Levels of platelets in blood before and after 5FU (blood platelets [3]) | Platelet levels after 10 days of administration, compared with TPO and control (blood platelets [3]; 5FU model, FIG. 6) | Potency relative to TPO in enhancing platelet levels and reducing chemotherapy-induced thrombocytopenia (blood platelets [3]; thrombocytopenia induced by chemotherapy) | Time after administration at which platelet increase could be detected (blood platelets [4]; 0.9 mg/kg single injection, MM patients) | Number of platelets in the blood after single injection (blood platelets [4]; 0.9 mg/kg, 10 days after Cyclophosphamide and G-CSF, still observed after 1, 2, 4 or 8 hours, FIG. 7) |
| --- | --- | --- | --- | --- | --- | --- | --- | --- | --- | --- | --- | --- |
| 4F-benzoyl-Arg-Arg-Nal-Cys-Tyr-Cit-Lys-DLys-Pro-Tyr-Arg-Cit-Cys-Arg-NH2 [4F-benzoyl-TN14003] | significant elevation in blood platelet levels | enhanced blood platelet levels | 1551 ×10^3 | potentiates the activity of TPO in enhancing platelets levels in vivo | as potent as TPO | 32% | 148.2 | enhanced the levels of platelets in blood before and after treatment with 5FU; also recorded: elevated blood platelet levels before or after 5FU administration | higher in 4F-benzoyl-TN14003-treated mice than in TPO-treated mice or control mice | more potent than TPO | 30 min | immediate increase in the number of platelets in the blood |
| Thrombopoietin [TPO] | – | – | 1556 ×10^3 | – | – | 32% | 150.2 | elevated blood platelet levels before or after 5FU administration | – | – | – | – |
| granulocyte-colony stimulating factor (protein, UniProt P09919 31-207, looked up, granulocyte-colony stimulating factor, s.c. injected daily at 5 μg/mouse) Granulocyte …: TPLGPASSLPQSFLLKCLEQVRKIQGDGAALQEKLVSECATYKLCHPEELVLLGHSLGIPWAPLSSCPSQALQLAGCLSQLHSGLFLYQGLLQALEGISPELGPTLDTLQLDVADFATTIWQQMEELGMAPALQPTQGAMPAFASAFQRRAGGVLVASHLQSFLEVSYRVLRHLAQP | – | – | – | – | – | – | – | no effect on blood platelet levels; also recorded: had no effect on platelet levels | – | – | – | – |

Source: patent US9427456B2, “Peptide therapy for increasing platelet levels” (Biokine Therapeutics Ltd., priority 2009, dated 2016)
